Assay [1] relates to human PBMCs. As to the kind of experiment: Immunoassays for cytokines in human PBMCs. The format is cell-based. Conditions: hPBMC stimulated 12 h with graded concentrations.
Another assay has as its target T1, human TLR8 (Homo sapiens, UniProt Q9NR97).
T1 sequence (Q9NR97 27-1041): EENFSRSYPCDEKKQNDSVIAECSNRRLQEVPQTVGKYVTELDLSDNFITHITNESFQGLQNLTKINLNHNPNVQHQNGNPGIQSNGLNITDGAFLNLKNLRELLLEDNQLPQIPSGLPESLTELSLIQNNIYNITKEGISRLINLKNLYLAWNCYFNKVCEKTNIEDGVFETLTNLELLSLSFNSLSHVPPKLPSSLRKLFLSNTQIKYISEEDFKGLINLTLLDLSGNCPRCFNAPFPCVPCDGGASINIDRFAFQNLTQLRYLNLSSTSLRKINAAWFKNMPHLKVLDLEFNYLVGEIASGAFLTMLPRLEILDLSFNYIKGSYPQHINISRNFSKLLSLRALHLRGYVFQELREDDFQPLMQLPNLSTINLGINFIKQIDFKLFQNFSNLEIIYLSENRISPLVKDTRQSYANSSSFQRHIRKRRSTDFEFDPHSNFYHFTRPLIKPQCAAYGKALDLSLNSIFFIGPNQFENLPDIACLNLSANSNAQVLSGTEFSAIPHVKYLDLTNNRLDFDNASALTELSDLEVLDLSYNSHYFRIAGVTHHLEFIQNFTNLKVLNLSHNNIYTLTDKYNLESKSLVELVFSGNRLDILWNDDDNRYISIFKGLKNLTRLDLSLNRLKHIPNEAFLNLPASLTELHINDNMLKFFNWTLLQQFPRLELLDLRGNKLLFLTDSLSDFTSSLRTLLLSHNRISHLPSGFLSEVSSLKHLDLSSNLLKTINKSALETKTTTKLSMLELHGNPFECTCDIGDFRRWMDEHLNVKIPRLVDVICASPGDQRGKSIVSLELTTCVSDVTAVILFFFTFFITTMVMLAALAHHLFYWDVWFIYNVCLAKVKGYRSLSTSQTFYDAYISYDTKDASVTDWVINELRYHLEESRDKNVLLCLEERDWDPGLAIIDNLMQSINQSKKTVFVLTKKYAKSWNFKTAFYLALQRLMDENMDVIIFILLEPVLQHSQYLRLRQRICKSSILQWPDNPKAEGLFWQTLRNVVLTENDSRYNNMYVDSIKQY
As to the kind of experiment: Human TLR8-specific HEK-Blue reporter gene assay. Conditions: human TLR8-transfected HEK293 cells, NF-κB reporter. The format is cell-based.

For assay [2], the system named is human PBMCs. As to the kind of experiment: Transcriptomal profiling in human PBMCs. The format is cell-based. Conditions: human PBMC, 10 μg/mL, two hours, fold change threshold 2.0.
For assay [3] the following is noted: cited from earlier work.
For another assay, the system named is NF-κB. The following applies: previously observed; cited from earlier work.
For assay [4] the following is noted: previously observed; cited from earlier work.

The values below come from article PMC3461104 (Journal of medicinal chemistry, 2012).

The structures appear in SMILES notation.

`Cc1ncc(CO)c2c(Nc3ccccn3)c(NCc3ccccc3)oc12` [Compound 28, (2-(benzylamino)-7-methyl-3-(pyridin-2-ylamino)furo[2,3-c]pyridin-4-yl)methanol]: the proinflammatory cytokine induction result in the assay with human PBMCs [1] is “none of the furo[2,3-c]pyridines showed any proinflammatory cytokine induction”.

Regarding `Cc1ncc(CO)c2c(Nc3ccccc3)c(NCc3ccccc3)oc12` [Compound 36, (2-(benzylamino)-7-methyl-3-(phenylamino)furo[2,3-c]pyridin-4-yl)methanol], the “dose-response profile (area-under the-curve) remark” value (“dose-response profile” for short) at human TLR8 is listed as “Very low AUC”.

With `CCCCNc1oc2c(C)ncc(CO)c2c1Nc1ccccn1` [Compound 37a, (2-(butylamino)-7-methyl-3-(pyridin-2-ylamino)furo[2,3-c]pyridin-4-yl)methanol], in the assay on human PBMCs [1], the proinflammatory cytokine induction result is “none of the furo[2,3-c]pyridines showed any proinflammatory cytokine induction”.

In the case of `CCCCCNc1oc2c(C)ncc(CO)c2c1Nc1ccccn1` [Compound 37b, (7-methyl-2-(pentylamino)-3-(pyridin-2-ylamino)furo[2,3-c]pyridin-4-yl)methanol], in the assay on human PBMCs [2], the “chemokine ligand gene expression” value was “upregulated several chemokine ligand (both CXCL and CCL) genes”; the “transcriptional signatures of inflammation” value is given as “no transcriptional signatures of inflammation”. Further, the proinflammatory cytokine induction result in the assay with human PBMCs [1] was “none of the furo[2,3-c]pyridines showed any proinflammatory cytokine induction”.

Consider `CCCC(C)Nc1oc2c(C)ncc(CO)c2c1Nc1ccccn1` (stereo not drawn) [Compound 37d, (7-methyl-2-(pentan-2-ylamino)-3-(pyridin-2-ylamino)furo[2,3-c]pyridin-4-yl)methanol], for which, on human TLR8, the “dose-response profile” value was “Low AUC”.

In the case of `Cc1ncc(CO)c2c(Nc3ccccn3)c(NC[Si](C)(C)C)oc12` [Compound 37f, (7-methyl-3-(pyridin-2-ylamino)-2-(((trimethylsilyl)methyl)amino)furo[2,3-c]pyridin-4-yl)methanol], in the assay on human PBMCs [2], the “chemokine ligand gene expression” value was “upregulated several chemokine ligand (both CXCL and CCL) genes”; the “transcriptional signatures of inflammation” value is on record as “no transcriptional signatures of inflammation”. Also, the proinflammatory cytokine induction result in the assay with human PBMCs [1] is “none of the furo[2,3-c]pyridines showed any proinflammatory cytokine induction”.

For `Cc1ncc(CO)c2c(Nc3ccccn3)c(NCCC(=O)OC(C)(C)C)oc12` [Compound 37i, tert-butyl 3-((4-(hydroxymethyl)-7-methyl-3-(pyridin-2-ylamino)furo[2,3-c]pyridin-2-yl)amino)propanoate], the “dose-response profile” value on human TLR8 is “Low AUC”.

Take `Cc1ncc(CO)c2c(Nc3ccccn3)c(N[C@@H](C)c3ccccc3)oc12` [Compound 37m, (S)-(7-methyl-2-((1-phenylethyl)amino)-3-(pyridin-2-ylamino)furo[2,3-c]pyridin-4-yl)methanol]: on human TLR8, the “dose-response profile” value is recorded as “Very low AUC”.

With `CCCCCNc1oc2c(C)ncc(CO)c2c1Nc1ccccc1` [Compound 38a, (7-methyl-2-(pentylamino)-3-(phenylamino)furo[2,3-c]pyridin-4-yl)methanol], the “dose-response profile” value on human TLR8 is “Low AUC”.

As for `CCCCCNc1oc2c(C)ncc(CO)c2c1Nc1cccc(F)c1` [Compound 38b, (3-((3-fluorophenyl)amino)-7-methyl-2-(pentylamino)furo[2,3-c]pyridin-4-yl) methanol], the “dose-response profile” value at human TLR8 is given as “Low AUC”.

As for `CCCCCNc1oc2c(C)ncc(CO)c2c1Nc1cccc([N+](=O)[O-])c1` [Compound 38c, (7-methyl-3-((3-nitrophenyl)amino)-2-(pentylamino)furo[2,3-c]pyridin-4-yl)methanol], the “dose-response profile” value at human TLR8 was “Low AUC”.

`Clc1ccc2c(NCCCCNc3ccnc4cc(Cl)ccc34)ccnc2c1` [Compound 41, 7-chloro-N-(4-(7-chloroquinolin-4-ylamino)butyl) quinolin-4-amine]: the adjuvantic activity entry in assay [3] was “potent adjuvant”. Also, the NF-κB transactivation result in the assay with NF-κB is listed as “potent NF-κB transactivation”. For the same molecule, in assay [4], the proinflammatory cytokine induction entry is “unaccompanied by any proinflammatory cytokine induction”.
